Test results as given in patent publication US7888523B2, “Preparation of platinum(II) complexes” (Platco Technologies (Proprietary) Limited, priority 2004, dated 2011).

Legend:
[1] = tested on: breast cancer cells; test: Anticancer testing, inhibition of breast cancer cells; type: cell-based; details: 100 μM solution, medium containing 10 mM glutathione
Protocol: (§1) Anticancer testing on the halogenoplatinum(II) complex of Example 8 was performed and compared with cisplatin. […] The corresponding values for cisplatin are 85.6% and 93.2%. The corresponding data on cervical cancer cells are 88.5 and 95.9% at 10 and 100 μM solutions. The corresponding values for cisplatin are 85.4 and 95% respectively. A further study in which 100 μM solutions were used in a medium containing 10 mM glutathione, the halogenoplatinum(II) complex performed even better, viz.

[2] = Anti-cancer properties (test not specified); details: statement in words, no test details
[3] = tested on: cervical cancer cells; test: Anticancer testing, inhibition of cervical cancer cells; type: cell-based; details: for inhibition on cervical cancer cells: medium containing 10 mM glutathione
Protocol: as §1

[4] = tested on: colon cancer cells; test: Anticancer testing, inhibition of colon cancer cells; type: cell-based; details: for inhibition on colon cells: medium containing 10 mM glutathione
Protocol: as §1

Compound: CSCc1nccn1C.[Cl][Pt][Cl] [Pt(mmtei)Cl2, bis-chloro-(1-methyl-2-methylthiomethyl-imidazole)platinum(II)]
- inhibition on breast cancer cells [1]: 66.1%
- anti-cancer properties [2]: exceptional anti-cancer properties
- percentage inhibition on cervical cancer cells ([3]; 10 μM solution): 88.5%
- percentage inhibition on cervical cancer cells ([3]; 100 μM solution): 95.9%
- inhibition on cervical cancer cells ([3]; 100 μM solution): 99.3%
- percentage inhibition on colon cancer cells ([4]; 10 μM solution): 92.8%
- percentage inhibition on colon cancer cells ([4]; 100 μM solution): 97.0%
- inhibition on colon cells ([4]; 100 μM solution): 98.2%

Compound: N.N.[Cl][Pt][Cl] [cisplatin, reference compound]
- inhibition on breast cancer cells [1]: 14%
- percentage inhibition on cervical cancer cells ([3]; 100 μM solution): 95%
- inhibition on cervical cancer cells ([3]; 100 μM solution): 58.6%
- percentage inhibition on colon cancer cells ([4]; 10 μM solution): 85.6%
- percentage inhibition on colon cancer cells ([4]; 100 μM solution): 93.2%
- inhibition on colon cells ([4]; 100 μM solution): 48.0%
